One may read the IC50 as the midpoint of a concentration-inhibition curve. As a reminder, the melting point is the temperature, or range, at which the solid turns liquid.

Like-named read-outs stand apart in the source and are kept apart here. Some results are limits rather than exact numbers.

For series [1], the target named is T1, STAT3 (Mus musculus, UniProt P42227). The experiment in a line: Inhibition of STAT3 dimerization, EMSA assay. In kind it is binding. More on the design: nuclear extracts were pre-incubated with compound for 30 minutes at room temperature prior to incubation with the radiolabeled probe; endogenous in cells; host or cells: nuclear extracts per the general EMSA method. (In general: In EMSA bound probe runs differently from free probe, usually more slowly.)

The target of series [2] is T1, STAT3. The experiment in a line: Inhibition of STAT3 dimerization, EMSA assay. In kind it is binding. Set-up: endogenous in cells; host or cells: nuclear extracts per the general EMSA method.
The target of series [3] is T2, Stat1:3 (Mus musculus, UniProt P42227).
T2 construct: endogenous in cells; host or cells: EGF-stimulated NIH3T3/hEGFR mouse fibroblasts, nuclear extracts
The experiment in a line: STATs DNA-binding activity in vitro, EMSA with hSIE probe. To be noted: Table 4; read-out: IC50 values for the inhibition of STATs DNA-binding activity in vitro, Stat1:3.

For series [4], the target named is T3, Stat3:3 (Mus musculus, UniProt P42227).
T3 construct: endogenous in cells; host or cells: NIH3T3/v-Src or EGF-stimulated NIH3T3/hEGFR mouse fibroblasts, nuclear extracts
The series is described as above. To be noted: for IC50: Table 4, read-out: IC50 values for the inhibition of STATs DNA-binding activity in vitro, Stat3:3.

The target of series [5] is Stat5:5. The experiment in a line: STATs DNA-binding activity in vitro, EMSA with MGFe probe. Set-up: species or system mouse. To be noted: Table 4; read-out: IC50 values for the inhibition of STATs DNA-binding activity in vitro, Stat5:5.
Series [6] addresses T4, Stat1:1 (Mus musculus, UniProt P42225).
T4 construct: endogenous in cells; host or cells: EGF-stimulated NIH3T3/hEGFR mouse fibroblasts, nuclear extracts
T4 sequence (P42225 2-749 limits assumed): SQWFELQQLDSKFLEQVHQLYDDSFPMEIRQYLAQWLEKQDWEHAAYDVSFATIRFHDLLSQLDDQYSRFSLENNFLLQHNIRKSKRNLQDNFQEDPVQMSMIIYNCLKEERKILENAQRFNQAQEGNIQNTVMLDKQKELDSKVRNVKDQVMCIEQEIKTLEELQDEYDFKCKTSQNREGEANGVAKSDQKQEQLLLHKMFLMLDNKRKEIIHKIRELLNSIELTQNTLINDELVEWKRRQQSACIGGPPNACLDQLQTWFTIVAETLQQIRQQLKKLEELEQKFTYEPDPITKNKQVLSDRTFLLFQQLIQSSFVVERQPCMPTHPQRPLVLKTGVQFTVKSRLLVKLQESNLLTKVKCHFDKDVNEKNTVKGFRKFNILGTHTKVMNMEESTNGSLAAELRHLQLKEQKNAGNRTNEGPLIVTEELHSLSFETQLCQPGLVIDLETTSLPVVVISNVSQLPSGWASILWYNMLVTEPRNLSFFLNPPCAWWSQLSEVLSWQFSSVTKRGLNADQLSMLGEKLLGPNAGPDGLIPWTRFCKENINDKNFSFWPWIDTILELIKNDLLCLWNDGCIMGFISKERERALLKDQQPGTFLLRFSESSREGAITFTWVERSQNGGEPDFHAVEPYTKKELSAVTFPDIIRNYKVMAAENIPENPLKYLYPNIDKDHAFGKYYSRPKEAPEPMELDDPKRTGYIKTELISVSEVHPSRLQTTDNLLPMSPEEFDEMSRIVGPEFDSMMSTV
The experiment in a line: STATs DNA-binding activity in vitro, EMSA. To be noted: Table 4; read-out: IC50 values for the inhibition of STATs DNA-binding activity in vitro, Stat1:1.

T1 sequence (P42227 2-770 limits assumed): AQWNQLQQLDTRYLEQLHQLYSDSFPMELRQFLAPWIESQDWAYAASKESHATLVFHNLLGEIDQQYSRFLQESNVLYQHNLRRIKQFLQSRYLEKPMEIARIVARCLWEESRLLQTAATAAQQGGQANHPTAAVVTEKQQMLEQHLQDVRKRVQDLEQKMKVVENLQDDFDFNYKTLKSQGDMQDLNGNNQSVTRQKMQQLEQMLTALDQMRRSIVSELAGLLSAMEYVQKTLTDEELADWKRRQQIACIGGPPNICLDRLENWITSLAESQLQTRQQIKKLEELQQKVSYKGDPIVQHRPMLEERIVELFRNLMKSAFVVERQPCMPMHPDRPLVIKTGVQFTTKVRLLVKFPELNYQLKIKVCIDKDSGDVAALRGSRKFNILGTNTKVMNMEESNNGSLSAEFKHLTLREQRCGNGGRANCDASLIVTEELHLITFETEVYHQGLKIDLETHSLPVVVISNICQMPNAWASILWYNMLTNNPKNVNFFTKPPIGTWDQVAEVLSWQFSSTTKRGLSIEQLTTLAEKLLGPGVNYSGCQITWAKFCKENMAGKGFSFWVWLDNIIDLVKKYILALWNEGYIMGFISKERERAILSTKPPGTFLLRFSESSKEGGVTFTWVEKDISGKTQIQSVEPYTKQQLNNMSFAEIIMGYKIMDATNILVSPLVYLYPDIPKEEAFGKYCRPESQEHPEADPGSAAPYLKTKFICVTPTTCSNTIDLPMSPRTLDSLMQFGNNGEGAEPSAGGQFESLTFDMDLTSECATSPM
T2 sequence (P42227 2-770 limits assumed): as above
T3 sequence (P42227 2-770 limits assumed): as above

With `O=C(COS(=O)(=O)c1ccc(-c2ccccc2)cc1)Nc1ccc(C(=O)O)c(O)c1` [Compound 19], the IC50 in series [1] is above 500 µM.

As to `O=C(CNS(=O)(=O)c1ccc(-c2ccccc2)cc1)Nc1ccc(C(=O)O)c(O)c1` [Compound 21], the IC50 in series [1] is above 500 µM.

As to `CCOC(=O)c1ccc(NC(=O)CC(CNS(=O)(=O)c2ccc(Oc3ccccc3)cc2)c2ccc(Cl)cc2)cc1` (centres unmarked) [Compound 37], the IC50 in series [1] is above 500 µM.

Compound `CCOC(=O)c1ccc(NC(=O)CC(CNS(=O)(=O)c2ccc(C)cc2)c2ccc(Cl)cc2)cc1` (centres unmarked) [Compound 38, Ethyl 4-(3-(4-chlorophenyl)-4-(4-methylphenylsulfonamido)butanamido)benzoate] returned a melting point of 187 to 189 °C.

Compound `CCOC(=O)c1ccc(NC(=O)CC(CNS(=O)(=O)c2ccc(Oc3ccccc3)cc2)c2ccccc2)cc1` (centres unmarked) [Compound 56, Ethyl 4-(4-(4-phenoxyphenylsulfonamido)-3-phenylbutanamido)benzoate] returned a melting point of 147 to 149 °C.

`CCOC(=O)c1ccc(NC(=O)CC(CNS(=O)(=O)c2ccc(Oc3ccccc3)cc2)c2ccc3ccccc3c2)cc1` (centres unmarked) [Compound 58, Ethyl 4-(3-(naphthalen-2-yl)-4-(4-phenoxyphenylsulfonamido)butanamido)benzoate] gave a melting point of 141 to 143 °C.

Compound `O=C(CC(CNS(=O)(=O)c1ccc(Oc2ccccc2)cc1)c1ccccc1)Nc1ccc(C(=O)O)cc1` (centres unmarked) [Compound 60, 4-(4-(4-phenoxyphenylsulfonamido)-3-phenylbutanamido)benzoic acid] came in with a melting point of 187 to 189 °C. Moreover, the IC50 in series [2] is above 500 µM.

`O=C(CC(CNS(=O)(=O)c1ccc(Oc2ccccc2)cc1)c1ccc2ccccc2c1)Nc1ccc(C(=O)O)cc1` (centres unmarked) [Compound 61, 4-(3-(naphthalen-2-yl)-4-(4-phenoxyphenylsulfonamido)butanamido)benzoic acid] displayed a melting point of 183 to 184 °C.

The compound `O=C(CC(CNS(=O)(=O)c1ccc(Oc2ccccc2)cc1)c1ccc2ccccc2c1)Nc1ccc(C(=O)O)c(O)c1` (centres unmarked) [Compound 65, 2-hydroxy-4-(3-(naphthalen-2-yl)-4-(4-phenoxyphenylsulfonamido)butanamido)benzoic acid] displayed a melting point of 153 to 155 °C. This compound came in with an IC50 in series [2] above 500 µM.

In turn, `CCOC(=O)c1ccc(NC(=O)CCc2ccccc2)cc1` [Compound 70, Ethyl 4-(3-phenylpropanamido)benzoate] returned a melting point of 109 to 111 °C. In series [2], this compound came in with an IC50 above 500 µM.

The compound `O=C(CCc1ccc2ccccc2c1)Nc1ccc(C(=O)O)cc1` [Compound 71, 4-(3-(Naphthalen-2-yl)propanamido)benzoic acid] showed a melting point of 255 to 257 °C. The IC50 in series [2] was above 500 µM.

Regarding `CCCCCCCCCCCC(=O)NC(=S)Nc1ccc(C(=O)O)cc1` [NSC 216360], the concentration for half-maximal inhibition (IC50) in series [3] was 290 µM; in series [4] it was 220 µM; in series [5], above 300 µM; in series [6], above 300 µM.

For `CCOc1cccc2c(NCCCCCCCCNc3c4ccccc4nc4c(OCC)cccc34)c3ccccc3nc12` [NSC 263435], the IC50 in series [3] came to 40 µM; in series [4] it was 25 µM; in series [5], 25 µM; in series [6], 50 µM. Further, in series [4], the “inhibition of Stat3 DNA-binding activity, in words” value was “notable potent inhibitors”.

For the compound `N#Cc1cc([N+](=O)[O-])ccc1NC(=O)C(=O)Nn1c(=S)[nH]c2ccccc2c1=O` [NSC 645885], the IC50 in series [3] came to 250 µM; in series [4], 245 µM; in series [5], 250 µM; in series [6] it was 205 µM.

Turning to `CC(=O)NNc1nc(C)c(C(/C=C/c2cccc([N+](=O)[O-])c2)=N/NC(=S)NN)s1` [NSC 647608], the IC50 in series [3] is above 300 µM; in series [4], 295 µM; in series [5], above 300 µM; in series [6], above 300 µM.
